From the supplement of paper PMC13380429
± gives the standard deviation of the averaged measurements.

Assays:
Details in all cases: 72 h
HepG2 [1] = test: relative viability EC50 (midpoint between 100% and the lowest measured viability); higher = less toxic
Vero E6 [2] = test: as above
Calu-3 [3] = test: as above
Caco-2 [4] = test: as above
U2OS [5] = test: as above
HepG2 [6] = test: drug sensitivity score (DSS) for viability; higher = more toxic; extreme values may be limits of the assay
Vero E6 [7] = test: as above
Calu-3 [8] = test: as above
Caco-2 [9] = test: as above
U2OS [10] = test: as above
HepG2 [11] = test: cell viability relative to DMSO; higher = less toxic
Vero E6 [12] = test: as above
Calu-3 [13] = test: as above
Caco-2 [14] = test: as above
U2OS [15] = test: as above

Row | Compound | relative viability EC50 (HepG2 [1]) [µM] | relative viability EC50 (Vero E6 [2]) [µM] | relative viability EC50 (Calu-3 [3]) [µM] | relative viability EC50 (Caco-2 [4]) [µM] | relative viability EC50 (U2OS [5]) [µM] | drug sensitivity score (HepG2 [6]) | drug sensitivity score (Vero E6 [7]) | drug sensitivity score (Calu-3 [8]) | drug sensitivity score (Caco-2 [9]) | drug sensitivity score (U2OS [10]) | cell viability (HepG2 [11]; 1 nM) [%] | cell viability (HepG2 [11]; 10 nM) [%] | cell viability (HepG2 [11]; 100 nM) [%] | cell viability (HepG2 [11]; 1000 nM) [%] | cell viability (HepG2 [11]; 10000 nM) [%] | cell viability (Vero E6 [12]; 1 nM) [%] | cell viability (Vero E6 [12]; 10 nM) [%] | cell viability (Vero E6 [12]; 100 nM) [%] | cell viability (Vero E6 [12]; 1000 nM) [%] | cell viability (Vero E6 [12]; 10000 nM) [%] | cell viability (Calu-3 [13]; 1 nM) [%] | cell viability (Calu-3 [13]; 10 nM) [%] | cell viability (Calu-3 [13]; 100 nM) [%] | cell viability (Calu-3 [13]; 1000 nM) [%] | cell viability (Calu-3 [13]; 10000 nM) [%] | cell viability (Caco-2 [14]; 1 nM) [%] | cell viability (Caco-2 [14]; 10 nM) [%] | cell viability (Caco-2 [14]; 100 nM) [%] | cell viability (Caco-2 [14]; 1000 nM) [%] | cell viability (Caco-2 [14]; 10000 nM) [%] | cell viability (U2OS [15]; 1 nM) [%] | cell viability (U2OS [15]; 10 nM) [%] | cell viability (U2OS [15]; 100 nM) [%] | cell viability (U2OS [15]; 1000 nM) [%] | cell viability (U2OS [15]; 10000 nM) [%]
1 | Cc1ccc(N2CCN(CC[C@H]3NC(=O)c4ccccc43)CC2)cc1C | > 10 | > 10 | > 10 | > 10 | > 10 | 0 | 0 | 0 | 0 | 0 | 90.2 | 96.1 | 96.2 | 95.2 | 97.3 | 90.8 | 97.7 | 93.4 | 98.7 | 111 | 104 | 96.1 | 95.6 | 99.7 | 113 | 97.3 | 90.7 | 92.4 | 97 | 96.4 | 96.7 | 101 | 98.9 | 96.2 | 102
2 | Cc1ccc(S(=O)(=O)Cc2nc(-c3ccc(C(=O)NCc4cccnc4)cc3)oc2C)cc1 | 0.0249 | 0.0372 | 0.036 | 0.0408 | 0.0364 | 28.2 | 29.2 | 28.3 | 27.6 | 29.7 | 101 | 77.3 | 23.5 | 12.2 | 9.5 | 106 | 110 | 2.3 | 1.5 | 2.6 | 105 | 102 | 8.7 | 5.3 | 5.3 | 104 | 107 | 11.2 | 5.4 | 16.6 | 96.4 | 108 | 1.1 | -0.1 | -0.2
3 | Cn1cc(-c2ccc(F)c(C(F)(F)F)c2)nc1C1CCN(c2ncnc3[nH]ncc23)CC1 | > 10 | > 10 | > 10 | > 10 | > 10 | 0 | 0 | 0.4 | 0.2 | 0.7 | 106 | 97.8 | 106 | 91.7 | 94.7 | 98.4 | 106 | 96.7 | 95.4 | 92 | 95.6 | 90.2 | 96.4 | 94.1 | 82.1 | 97 | 96.9 | 102 | 102 | 84.5 | 96.9 | 94.5 | 90.3 | 90.9 | 84.6
4 | COC(=O)C1=C(C)NC(C)=C([N+](=O)[O-])[C@@H]1c1ccccc1C(F)(F)F (racemic) [BAY-K-8644-(+/-)] | > 10 | > 10 | > 10 | > 10 | > 10 | 0 | 0 | 0 | 0 | 0 | 99.8 ± 1.3 | 93.6 ± 3.2 | 95.2 ± 1.8 | 104 ± 10 | 94.25 ± 0.21 | 95 ± 1.1 | 97.9 ± 1.4 | 99.4 ± 4.5 | 100 ± 2 | 101 ± 5.7 | 101 ± 8.4 | 99.4 ± 2.1 | 99.9 ± 7.6 | 100 ± 6.7 | 98.5 ± 3.2 | 89.8 ± 1.6 | 94.5 ± 2.3 | 94.3 ± 1.8 | 106 ± 4.2 | 93.4 ± 3.4 | 95.9 ± 0.28 | 95.9 ± 4.4 | 98.8 ± 4.9 | 97.9 ± 4.7 | 96.2 ± 0.85
5 | CCOC(=O)C1=C(C)NC(C)=C(C(=O)OC)[C@@H]1c1cccc([N+](=O)[O-])c1 (racemic) [nitrendipine] | > 10 | > 10 | > 10 | > 10 | > 10 | 0 | 0 | 0 | 0 | 0 | 108 | 102 | 89 | 104 | 92.7 | 102 | 106 | 98.5 | 105 | 103 | 89.5 | 92.3 | 105 | 86.5 | 87.1 | 81.3 | 92.4 | 96.2 | 90.2 | 82.9 | 98.5 | 96.9 | 98.7 | 95.4 | 95.6
6 | N#Cc1ncccn1 [2-cyanopyrimidine] | > 10 | > 10 | > 10 | > 10 | > 10 | 0 | 0 | 0 | 0 | 0 | 102 | 100 | 93.7 | 93.6 | 111 | 93.8 | 104 | 97 | 106 | 94.6 | 102 | 99.3 | 101 | 91.6 | 96.9 | 98.5 | 93.7 | 101 | 99.3 | 102 | 100 | 104 | 96.7 | 99.6 | 97.9
7 | C=CCN1CCN(c2nc3ccccc3nc2C#N)CC1 [3-AQC] | > 10 | > 10 | > 10 | > 10 | > 10 | 0 | 0 | 0 | 0 | 0 | 94 | 104 | 96.6 | 97.5 | 94.2 | 94.9 | 102 | 92.6 | 104 | 108 | 94.7 | 98 | 101 | 103 | 98.1 | 102 | 99.9 | 103 | 101 | 95.2 | 100 | 101 | 101 | 97.9 | 97.1
